Data as given in patent US5686637A, “Antifungal agent” (Merck & Co., Inc., priority 1995, dated 1997).
In brackets after ≈: the same amount, converted by molar mass. Like-named read-outs stand apart in the source and are kept apart here.

Legend:
[1] = system: Saccharomyces cerevisiae (MY 2140); assay: microbroth dilution assay (MIC/MFC), Saccharomyces cerevisiae (MY 2140); format: cell-based; conditions: for MFC: read-out: Minimum Fungicidal Concentration (MFC); for MIC: read-out: Minimum Inhibitory Concentration (MIC)
Experimental: (§1) In the microbroth dilution assay, microorganisms were selected by streaking a yeast culture on Sabouraud dextrose agar (SDA) incubating for 24-48 hours at 35°-37° C., thereafter selected 3 to 5 characteristic colonies and transferring to a fresh plate and incubating under similar conditions. From the regrowth, 3 to 5 colonies were selected and suspended in. 10 milliliters of YM broth (Dffco) and incubated for 4 hours at 35°-37° C. shaking at 225 rpm. The 4 hour broth cultures were adjusted optically to 86% transmission resulting in a concentration of 1-5×10^6 cfu/ml which was further diluted 1:100 in YNBD (yeast nitrogen base with 1% dextrose) to obtain a concentration of 1-5×10^4 cfu/ml for use as inocula.
(§2) The test compound, Compound I, was prepared as a stock solution of 128 μg/ml in 20% methanol and 75 μl of said solution delivered to each well in column 1 of a 96-well, U-bottomed microtiter plate. The compounds in column 1 were then serially diluted two-fold to yield concentrations from 32 μg/ml to 0.15 μg/ml.
(§3) Amphotericin, the control compound, was prepared as a stock solution of 512 μg/ml in 10% DMSO and 75 μl of said solution delivered to each well in column 1 of a 96-well, U-bottomed microtiter plate. The compounds in column 1 were then serially diluted two-fold to yield concentrations from 128 μg/ml to 0.6 μg/ml.
(§4) The plates containing the diluted compounds were then inoculated with 75 μl/well of the appropriate microorganism and incubated for 48 hours at 35°-37° C. with MIC (minimum inhibitory concentration) determinations carried out after 24 hours of incubation. Growth and sterility controls for each organism and sterility checks for the compounds also were carded out.
(§5) After recording MICs at 24 hours, the microtiter plates were shaken gently to resuspend the cells. A 1.5 μl sample was transferred from each well of the 96-well microtiter plate to a single reservoir inoculum plate containing SDA. The inoculated SDA and corresponding microtiter plates were incubated for 24 hours at 35°-37° C. For Cryptococus neoformans, SDA plates were inoculated at 48 hours after recording MICs and incubated 48 hours before reading the MFC. MFC is the lowest concentration of compound at which either no growth or growth of ≤4 colonies occur.

A. fumigatus (5668) = assay: microbroth dilution assay (MIC), A. fumigatus (5668); format: cell-based; conditions: Aspergillus fumigatus, 24 h, read-out: Minimum Inhibitory Concentration (MIC)
Experimental: as §1
(§6) The test compound, Compound I, was prepared as a stock solution of 128 μg/ml in 20% methanol and 75 μl of said solution delivered to each well in column 1 of a 96-well, U-bottomed microtiter plate. The compounds in column 1 were then serially diluted two-fold to yield concentrations from 32 μg/ml to 0.15 μg/ml. […]
(§7) After recording MICs at 24 hours, the microtiter plates were shaken gently to resuspend the cells. […] For Cryptococus neoformans, SDA plates were inoculated at 48 hours after recording MICs and incubated 48 hours before reading the MFC. […]

[2] = system: C. parapsilosis (MY 1010); assay: microbroth dilution assay (MIC/MFC), C. parapsilosis (MY 1010); format: cell-based; conditions: Lodderomyces parapsilosis; for MFC: read-out: Minimum Fungicidal Concentration (MFC); for MIC: read-out: Minimum Inhibitory Concentration (MIC)
Experimental: as §1, §2, §3, §4, §5

C. topicalis (MY1012) = assay: microbroth dilution assay (MIC/MFC), C. topicalis (MY1012); format: cell-based; conditions: for MFC: read-out: Minimum Fungicidal Concentration (MFC); for MIC: read-out: Minimum Inhibitory Concentration (MIC)
Experimental: as §1, §2, §3, §4, §5

[3] = system: Candida albicans (MY 1055); assay: microbroth dilution assay (MIC/MFC), Candida albicans (MY 1055); format: cell-based; conditions: for MFC: read-out: Minimum Fungicidal Concentration (MFC); for MIC: read-out: Minimum Inhibitory Concentration (MIC)
Experimental: as §1, §2, §3, §4, §5

[4] = system: C. guillermondii (MY 1019); assay: microbroth dilution assay (MIC/MFC), C. guillermondii (MY 1019); format: cell-based; conditions: for MFC: read-out: Minimum Fungicidal Concentration (MFC); for MIC: read-out: Minimum Inhibitory Concentration (MIC)
Experimental: as §1, §2, §3, §4, §5

C. glabrata (MY1381) = assay: microbroth dilution assay (MIC/MFC), C. glabrata (MY1381); format: cell-based; conditions: Nakaseomyces glabratus; for MFC: read-out: Minimum Fungicidal Concentration (MFC); for MIC: read-out: Minimum Inhibitory Concentration (MIC)
Experimental: as §1, §2, §3, §4, §5

S. cerevisiae (MY 2141) = assay: microbroth dilution assay (MIC/MFC), S. cerevisiae (MY 2141); format: cell-based; conditions: Saccharomyces cerevisiae
Experimental: as §1, §6, §7

C. albicans (CLY539) = assay: microbroth dilution assay (MIC/MFC), C. albicans (CLY539); format: cell-based; conditions: Candida albicans; for MFC: read-out: Minimum Fungicidal Concentration (MFC); for MIC: read-out: Minimum Inhibitory Concentration (MIC)
Experimental: as §1, §2, §3, §4, §5

C. tropicalis (MY1124) = assay: microbroth dilution assay (MIC/MFC), C. tropicalis (MY1124); format: cell-based; conditions: Candida tropicalis; for MFC: read-out: Minimum Fungicidal Concentration (MFC); for MIC: read-out: Minimum Inhibitory Concentration (MIC)
Experimental: as §1, §2, §3, §4, §5

[5] = system: C. pseudotropicalis (MY 2099); assay: microbroth dilution assay (MIC/MFC), C. pseudotropicalis (MY 2099); format: cell-based, Candida pseudotropicalis; conditions: Kluyveromyces marxianus; for MFC: read-out: Minimum Fungicidal Concentration (MFC); for MIC: read-out: Minimum Inhibitory Concentration (MIC)
Experimental: as §1, §2, §3, §4, §5

C. albicans (CA2) = assay: microbroth dilution assay (MIC/MFC), C. albicans (CA2); format: cell-based; conditions: Candida albicans; for MFC: read-out: Minimum Fungicidal Concentration (MFC); for MIC: read-out: Minimum Inhibitory Concentration (MIC)
Experimental: as §1, §2, §3, §4, §5

[6] = system: Cryptococcus neoformans (MY 2062); assay: microbroth dilution assay (MIC), Cryptococcus neoformans (MY 2062); format: cell-based; conditions: 24 h, read-out: Minimum Inhibitory Concentration (MIC)
Experimental: as §1, §6, §7

[7] = system: Aspergillus fumigatus (MF 4839); assay: microbroth dilution assay (MIC), Aspergillus fumigatus (MF 4839); format: cell-based; conditions: 24 h, read-out: Minimum Inhibitory Concentration (MIC)
Experimental: as §1, §6, §7

panel of fungi = assay: broth microdilution assay against a panel of fungi; format: cell-based; conditions: MIC and MFC
Experimental: as §1, §6, §7

[8] = system: filamentous fungi (AspergiIlus fiavus, Fusarium oxysporum, usalago zeae and the like); assay: agar plate inhibition zone test, filamentous fungi; format: cell-based; conditions: agar plates, methanol solutions, 28° C. or 37° C., 24 hours
Experimental: Compound I is also useful for inhibiting the growth of filamentous fungi. Such use may be illustrated in the following tests with AspergiIlus fiavus, Fusarium oxysporum, usalago zeae and the like. Inocula for filamentous fungi are prepared by scraping the surface of stock plates maintained on potato dextrose agar with a moistened sterile dacron swab. The spores and mycelia are then suspended in 10 milliliters of sterile potato dextrose broth and adjusted to 70 percent transmission at 660 nm. The samples to be tested for production of antifungal agent are applied directly to the agar plates as methanol solutions. When the sample to be tested is crude broth, it may be centrifuged prior to application. The assay plates are then incubated at either 28° C. or 37° C. for 24 hours. Following incubation, the inhibition zones are measured. Growths are also noted as to appearance.

C[C@@H]1[C@H](O)[C@@H](C)/C=C/C=C/C=C/C=C/C=C/C=C/C=C/[C@H](O[C@@H]2O[C@H](C)[C@@H](O)[C@H](N)[C@@H]2O)C[C@@H]2O[C@](O)(C[C@@H](O)C[C@@H](O)[C@H](O)CC[C@@H](O)C[C@@H](O)CC(=O)O[C@H]1C)C[C@H](O)[C@H]2C(=O)O [Amphotericin B]
MFC ([1]; Saccharomyces cerevisiae, 24 h): 1 µg/mL (≈ 1.08 µM) | MIC ([1]; Saccharomyces cerevisiae, 24 h): 1 µg/mL (≈ 1.08 µM) | MIC (A. fumigatus (5668)): 2 µg/mL (≈ 2.16 µM) | MFC ([2]; 24 h): 1 µg/mL (≈ 1.08 µM) | MIC ([2]; 24 h): 1 µg/mL (≈ 1.08 µM) | MFC (C. topicalis (MY1012); 24 h): 16 µg/mL (≈ 17.3 µM) | MIC (C. topicalis (MY1012); 24 h): 16 µg/mL (≈ 17.3 µM) | MFC ([3]; Candida albicans, 24 h): 1 µg/mL (≈ 1.08 µM) | MIC ([3]; Candida albicans, 24 h): 1 µg/mL (≈ 1.08 µM) | MFC ([4]; 24 h): 2 µg/mL (≈ 2.16 µM) | MIC ([4]; 24 h): 1 µg/mL (≈ 1.08 µM) | MFC (C. glabrata (MY1381); 24 h): 2 µg/mL (≈ 2.16 µM) | MIC (C. glabrata (MY1381); 24 h): 2 µg/mL (≈ 2.16 µM) | MIC (S. cerevisiae (MY 2141); 24 h, 35°-37° C., read-out: Minimum Inhibitory Concentration (MIC)): 1 µg/mL (≈ 1.08 µM) | MFC (S. cerevisiae (MY 2141); no growth or ≤4 colonies on SDA after 24 h, read-out: Minimum Fungicidal Concentration (MFC)): 1 µg/mL (≈ 1.08 µM) | MFC (C. albicans (CLY539); 24 h): 2 µg/mL (≈ 2.16 µM) | MIC (C. albicans (CLY539); 24 h): 1 µg/mL (≈ 1.08 µM) | MFC (C. tropicalis (MY1124); 24 h): 2 µg/mL (≈ 2.16 µM) | MIC (C. tropicalis (MY1124); 24 h): 2 µg/mL (≈ 2.16 µM) | MFC ([5]; 24 h): 2 µg/mL (≈ 2.16 µM) | MIC ([5]; 24 h): 2 µg/mL (≈ 2.16 µM) | MFC (C. albicans (CA2); 24 h): 1 µg/mL (≈ 1.08 µM) | MIC (C. albicans (CA2); 24 h): 1 µg/mL (≈ 1.08 µM) | MIC ([6]; Cryptococcus neoformans): 1 µg/mL (≈ 1.08 µM) | MIC ([7]; Aspergillus fumigatus): 2 µg/mL (≈ 2.16 µM)

CCCCCCCCCCC(C)C(O)C(C)/C=C(C)/C=C(\C)C(=O)C(C)/C=C(\C)C(=O)OC(CO)C(O)C(O)C(=O)O (centres unmarked) [Compound I]
MIC ([1]; Saccharomyces cerevisiae (MY 2140), 24 h, 35°-37° C.): 4 µg/mL (≈ 6.7 µM) | MFC ([1]; Saccharomyces cerevisiae (MY 2140), no growth or ≤4 colonies on SDA after 24 h): 4 µg/mL (≈ 6.7 µM) | MIC (A. fumigatus (5668); A. fumigatus (5668), 35°-37° C.): > 32 µg/mL | MIC ([2]; C. parapsilosis (MY 1010), 24 h, 35°-37° C.): 2 µg/mL (≈ 3.35 µM) | MFC ([2]; C. parapsilosis (MY 1010), no growth or ≤4 colonies on SDA after 24 h): 2 µg/mL (≈ 3.35 µM) | MIC (C. topicalis (MY1012); C. topicalis (MY1012), 24 h, 35°-37° C.): 1 µg/mL (≈ 1.68 µM) | MFC (C. topicalis (MY1012); C. topicalis (MY1012), no growth or ≤4 colonies on SDA after 24 h): 0.5 µg/mL (≈ 0.838 µM) | MIC ([3]; Candida albicans (MY 1055), 24 h, 35°-37° C.): 2 µg/mL (≈ 3.35 µM) | MFC ([3]; Candida albicans (MY 1055), no growth or ≤4 colonies on SDA after 24 h): 2 µg/mL (≈ 3.35 µM) | effective concentrations against a panel of fungi compared with amphotericin B (panel of fungi): effective at concentrations comparable to an established antifungal agent, amphotericin B | MIC ([4]; C. guillermondii (MY 1019), 24 h, 35°-37° C.): 4 µg/mL (≈ 6.7 µM) | MFC ([4]; C. guillermondii (MY 1019), no growth or ≤4 colonies on SDA after 24 h): 16 µg/mL (≈ 26.8 µM) | MIC (C. glabrata (MY1381); C. glabrata (MY1381), 24 h, 35°-37° C.): 4 µg/mL (≈ 6.7 µM) | MFC (C. glabrata (MY1381); C. glabrata (MY1381), no growth or ≤4 colonies on SDA after 24 h): 4 µg/mL (≈ 6.7 µM) | inhibition of growth of fungal organisms (inhibition zones) [8]: effectively inhibit growth of the fungal organisms | MIC (C. albicans (CLY539); C. albicans (CLY539), 24 h, 35°-37° C.): 2 µg/mL (≈ 3.35 µM) | MFC (C. albicans (CLY539); C. albicans (CLY539), no growth or ≤4 colonies on SDA after 24 h): 2 µg/mL (≈ 3.35 µM) | MIC (C. tropicalis (MY1124); C. tropicalis (MY1124), 24 h, 35°-37° C.): 2 µg/mL (≈ 3.35 µM) | MFC (C. tropicalis (MY1124); C. tropicalis (MY1124), no growth or ≤4 colonies on SDA after 24 h): 2 µg/mL (≈ 3.35 µM) | MIC ([5]; C. pseudotropicalis (MY 2099), 24 h, 35°-37° C.): 1 µg/mL (≈ 1.68 µM) | MFC ([5]; C. pseudotropicalis (MY 2099), no growth or ≤4 colonies on SDA after 24 h): 1 µg/mL (≈ 1.68 µM) | MIC (C. albicans (CA2); C. albicans (CA2), 24 h, 35°-37° C.): 2 µg/mL (≈ 3.35 µM) | MFC (C. albicans (CA2); C. albicans (CA2), no growth or ≤4 colonies on SDA after 24 h): 2 µg/mL (≈ 3.35 µM) | MIC ([6]; Cryptococcus neoformans (MY 2062), 35°-37° C., SDA plates inoculated at 48 hours after recording MICs): 2 µg/mL (≈ 3.35 µM) | MIC ([7]; Aspergillus fumigatus (MF 4839), 35°-37° C.): > 32 µg/mL
